Experimental data: patent publication US7767798B2, “Loganin analogues and a process for the preparation thereof” (priority 2005, dated 2010)
Converted amounts (≈) assume the structure as drawn. Like-named read-outs stand apart in the source and are kept apart here.

Experiments:
[1] = system: Liver (WRL) cancer cell line; test: MTT cytotoxicity assay, WRL; format: cell-based, human; details: for IC50: Homo sapiens, read-out: WRL IC50
Experimental: (§1) Cytotoxicity testing In-vitro was done by the method of Woerdenberg et al^17. 2×10^3 cells/well were incubated in the 5% CO2, 95% atmosphere and 37° C. in CO2 incubator for 24 h to enable them to adhere properly to the 96 well polysterene microplate (Grenier, Germany). Test compounds dissolved in 100% DMSO (Merck, Germany) in at least five doses were added and left for four hour after which the compound plus media was replaced with fresh media and the cell were incubated for another 48 h in the CO2 incubator at 37° C. […] Then, 10 μL from 5 mg/ml stock of MTT [3-(4,5-dimethylthiazol-2-yl)-2,5-diphenyltetrazolium bromide; Sigma M 2128] was added, and plate were incubated at 37° C. for 4 h. 100 μL of dimethylsulfoxide (DMSO, Merck, Germany) were added to all wells and mixed thoroughly to dissolve the dark blue crystal. After a few minute at room temperature to ensure that all crystal were dissolve, the plate were read on a Spectra Max 190 Microplate Elisa Reader (Molecular Devices Inc., U.S.A), at 570 nm. Plate were normally read within 1 h of adding the DMSO. The experiment was done in triplicate and the inhibitory concentration (IC) values were calculated as; % INHIBITION=[1−OD (570 nm) of sample well/OD (570 nm) of control well]×100. IC50 is the concentration μg/mL required for 50% inhibition of cell growth as compared to that of untreated control.

[2] = system: Adherent colon (CaCo2) cancer cell line; test: MTT cytotoxicity assay, CaCo2; format: cell-based, human; details: for IC50: Homo sapiens
Experimental: as §1

[3] = system: breast (MCF-7) cancer cell line; test: MTT cytotoxicity assay, MCF-7; format: cell-based, human; details: for IC50: Homo sapiens
Experimental: as §1

[4] = system: Suspension Colon (COLO-320) cancer cell line; test: MTT cytotoxicity assay, COLO-320; format: cell-based, human; details: for IC50: Homo sapiens; for times higher activity than vinblastine: COLO-320
Experimental: as §1

[5] = system: Ovary (PA-1) cancer cell line; test: MTT cytotoxicity assay, PA-1; format: cell-based, human; details: for IC50: Homo sapiens, read-out: PA-1 IC50
Experimental: as §1

[6] = system: human cancer cell lines (MCF-7, PA-1, WRL, COLO-320, CaCo2); test: MTT cytotoxicity assay, summary over the tested human cancer cell lines; details: for IC50: Homo sapiens; for Dosage range IC50: range of IC50 over the tested cell lines (Table 1)
Experimental: as §1

[7] = tested human cancer cell lines, comparison with loganin, compound 4 or a neighbouring analogue
[8] = MTT assay, WRL liver cancer cells
[9] = MTT assay, CaCo2 adherent colon cancer cells
[10] = MTT assay, MCF-7 breast cancer cells
[11] = MTT assay, COLO-320 suspension colon cancer cells
[12] = MTT assay, PA-1 ovary cancer cells

Structure (SMILES)	cytotoxic activity in words [6, 7]	WRL IC50 [1, 8] [mg/L]	CaCo2 IC50 [2, 9] [mg/L]	MCF-7 IC50 [3, 10] [mg/L]	COLO-320 IC50 [4, 11] [mg/L]	PA-1 IC50 [5, 12] [mg/L]	Dosage range IC50 [6] [mg/L]	further results
COC(=O)C1=CO[C@@H](O[C@@H]2O[C@H](CO)[C@@H](O)[C@H](O)[C@H]2O)[C@@H]2[C@@H](C)[C@@H](O)C[C@H]12 [Compound 1, loganin]	significant cytotoxic activity	–	–	–	–	–	–	IC50 [1]: 1.86 mg/L (≈ 4.76 µM); IC50 ([2]; Caco-2, read-out: CaCo2 IC50): 1.28 mg/L (≈ 3.28 µM); IC50 ([3]; MCF7, read-out: MCF-7 IC50): 4.85 mg/L (≈ 12.4 µM); IC50 ([4]; COLO 320, read-out: COLO-320 IC50): 1 mg/L (≈ 2.56 µM); IC50 [5]: 1.45 mg/L (≈ 3.71 µM); IC50 ([6]; read-out: Dosage range IC50): 1 to 5 mg/L (≈ 2.56 to 12.8 µM); IC50 ([6]; read-out: concentration/dose used in vitro MTT assay for IC50, range): 1 to 5 mg/L (≈ 2.56 to 12.8 µM)
COC(=O)C1=CO[C@@H](O[C@@H]2O[C@H](COC(c3ccccc3)(c3ccccc3)c3ccccc3)[C@@H](O)[C@H](O)[C@H]2O)[C@@H]2[C@@H](C)[C@@H](O)C[C@H]12 [Compound 2, 6′-O-trityl loganin]	–	1.86	0.56	1.00	0.25	0.65	0.25 to 2.0	cytotoxic activity in words [6]: enhanced cytotoxic activity
COC(=O)C1=COC(O[C@@H]2O[C@H](COC(c3ccccc3)(c3ccccc3)c3ccccc3)[C@@H](OC(C)=O)[C@H](OC(C)=O)[C@H]2OC(C)=O)C2C1CC(OC(C)=O)C2C (stereo partly drawn) [Compound 3, 2′,3′,4′,7-tetra-O-acetyl-6′-O-trityl loganin]	enhanced cytotoxic activity	2.44	3.45	1.20	0.82	1.20	0.80 to 3.5	–
COC(=O)C1=COC(O[C@@H]2O[C@H](CO)[C@@H](OC(C)=O)[C@H](OC(C)=O)[C@H]2OC(C)=O)C2C1CC(OC(C)=O)C2C (stereo partly drawn) [Compound 4, 2′,3′,4′,7-tetra-O-acetyl loganin]	abolished cytotoxicity	–	–	–	–	–	–	–
CCC(=O)OC[C@H]1O[C@@H](OC2OC=C(C(=O)OC)C3CC(OC(C)=O)C(C)C23)[C@H](OC(C)=O)[C@@H](OC(C)=O)[C@@H]1OC(C)=O (stereo partly drawn) [Compound 5, 2′,3′,4′,7-Tetra-O-acetyl-6′-O-propionylloganin]	–	2.65	2.85	1.88	0.85	1.24	0.80 to 3.0	concentration/dose used in vitro MTT assay for IC50, range ([6]; MCF-7, PA-1, WRL, COLO-320 and CaCo-2): 0.80 to 3.0 mg/L
CCCCCCCCCCCC(=O)OC[C@H]1O[C@@H](OC2OC=C(C(=O)OC)C3CC(OC(C)=O)C(C)C23)[C@H](OC(C)=O)[C@@H](OC(C)=O)[C@@H]1OC(C)=O (stereo partly drawn) [Compound 6, 2′,3′,4′,7-Tetra-O-acetyl-6′-O-lauroylloganin]	–	0.85	0.42	0.24	0.04	0.15	0.04 to 0.85	times higher activity than vinblastine [4]: 13 times
CCCCCCCCCCCCCC(=O)OC[C@H]1O[C@@H](OC2OC=C(C(=O)OC)C3CC(OC(C)=O)C(C)C23)[C@H](OC(C)=O)[C@@H](OC(C)=O)[C@@H]1OC(C)=O (stereo partly drawn) [Compound 7, 2′,3′,4′,7-Tetra-O-acetyl-6′-O-myristoyl loganin]	–	58.50	–	24.60	30.00	6.5	6.5 to 59.0	–
C=CC(=O)OC[C@H]1O[C@@H](OC2OC=C(C(=O)OC)C3CC(OC(C)=O)C(C)C23)[C@H](OC(C)=O)[C@@H](OC(C)=O)[C@@H]1OC(C)=O (stereo partly drawn) [Compound 9, 2′,3′,4′,7-Tetra-O-acetyl-6′-O-acryloyl loganin]	totally abolished the activity	–	–	–	–	–	–	–
COC(=O)C1=COC(O[C@@H]2O[C@H](COC(=O)C=C(C)C)[C@@H](OC(C)=O)[C@H](OC(C)=O)[C@H]2OC(C)=O)C2C1CC(OC(C)=O)C2C (stereo partly drawn) [Compound 10, 2′,3′,4′,7-Tetra-O-acetyl-6′-O-3″,3″-dimethyl acryloylloganin]	significant enhancement of anticancer activity	1.20	0.80	1.00	0.08	0.65	0.08 to 1.20	–
COC(=O)C1=COC(O[C@@H]2O[C@H](COC(=O)c3cc(OC)c(OC)c(OC)c3)[C@@H](OC(C)=O)[C@H](OC(C)=O)[C@H]2OC(C)=O)C2C1CC(OC(C)=O)C2C (stereo partly drawn) [Compound 11, 2′,3′,4′,7-Tetra-O-acetyl-6′-O-3,4,5-trimethoxy benzoyl loganin]	significant enhancement in the cytotoxicity	0.54	0.06	0.25	0.04	0.10	0.044 to 3.54	times higher activity than vinblastine ([2]; CaCO2): 8 times; times higher activity than vinblastine [4]: 13 times
COC(=O)C1=COC(O[C@@H]2O[C@H](COC(=O)c3cccc([N+](=O)[O-])c3)[C@@H](OC(C)=O)[C@H](OC(C)=O)[C@H]2OC(C)=O)C2C1CC(OC(C)=O)C2C (stereo partly drawn) [Compound 12, 2′,3′,4′,7-Tetra-O-acetyl-6′-O-(3′″)-nitrobenzoyl loganin]	slightly decreased the activity	3.20	1.00	1.25	0.44	0.85	0.44 to 3.20	–
CC[C@]1(O)C[C@@H]2CN(CCc3c([nH]c4ccccc34)[C@@](C(=O)OC)(c3cc4c(cc3OC)N(C)[C@H]3[C@@](O)(C(=O)OC)[C@H](OC(C)=O)[C@]5(CC)C=CCN6CC[C@]43[C@@H]65)C2)C1 [Vinblastine, vinblastine, reference compound]	–	–	–	–	–	–	–	IC50 [1, 8]: 1.45 mg/L (≈ 1.79 µM); IC50 ([2]; Caco-2, MTT assay, CaCo2 adherent colon cancer cells, read-out: CaCo2 IC50): 0.46 mg/L (≈ 0.567 µM); IC50 ([3]; MCF7, MTT assay, MCF-7 breast cancer cells, read-out: MCF-7 IC50): 0.02 mg/L (≈ 0.0247 µM); IC50 ([4]; MTT assay, COLO-320 suspension colon cancer cells, read-out: COLO-320 IC50): 0.52 mg/L (≈ 0.641 µM); IC50 [5, 12]: 0.025 mg/L (≈ 0.0308 µM); IC50 ([6]; read-out: Dosage range IC50): 0.02 to 1.45 mg/L (≈ 0.0247 to 1.79 µM)
